Results from patent US4299839A, “Novel pesticides and pesticidal compositions cyclopropanecarboxylates and pesticidal method” (priority 1979, dated 1981).
Read-outs that look alike come from different tables or passages of the source.

Tests used:
[1] = Fish Toxicity Test; type: in vivo; details: guppy, water; rank; 50% of female guppies killed during 48 hours, 20° C.; [Mixture] = cis/trans 50/50; read-out: TLm (medium tolerance limit)
Procedure: (§1) The mixture was stirred well to prepare a test water. Ten female guppies from 3 to 4 months of age were released into the test water and maintained at 20° C. The concentration of the test compound at which 50% of the guppies were killed during the ensuring 48 hours was determined. [This concentration is referred to as TLm (medium tolerance limit, ppm)].
(§2) A rank corresponds to TLm of not less than 10 ppm.
(§3) B rank corresponds to TLm of 0.5-10 ppm.
(§4) C rank corresponds to TLm of not more than 0.5 ppm.

[2] = test system: housefly (Musca domestica); assay: Mortality test against houseflies by topical application; type: in vivo
Procedure: Each test compound was accurately weighed and a 1% solution and an 0.1% solution of the sample in acetone were prepared. A 1 μl portion of either of the above solutions was micropipetted onto the thoracic dorsal part of each female adult housefly (Musca domestica) under ether anaesthesia and the fly was released in a high-walled dish together with feed. The dish was covered with a metal-wire net and maintained at 25° C. After 24 hours, the test flies were inspected for deaths and the mortality (%) was calculated. Thirty test flies were used per concentration group.

[3] = test system: guppies; assay: Fish Toxicity Test; type: in vivo; details: rank; 50% of female guppies killed during 48 hours, 20° C.; [Mixture] = cis/trans 50/50
Procedure: as §1, §2, §3, §4

[4] = test system: houseflies; assay: Utility Example 3: settling mist method, mortality test against houseflies, oil preparations of Formulation Example 3; type: in vivo; details: oil preparation of Formulation Example 3 (0.1 part compound + 0.08 part permethrin per 100 parts), 24 hours; cis/trans 50/50
Procedure: To 0.1 part of each of Compounds (1) to (38) was added 0.08 part of permethrin, followed by the addition of a sufficient amount of kerosene to make 100 parts. The mixture was stirred to obtain an oil preparation of each compound.
By the settling mist method, a mortality test against houseflies was carried out using the oil preparations obtained in Formulation Example 3 from Compounds (1), (5), (7), (9), (11), (12), (15), (17) and (28) [Each compound is a mixture of cis- and trans-isomer in a ratio 50/50]. After 24 hours, the flies were examined for deaths. The mortality (%) was not less than 90% for each of Compounds (1), (5), (7), (9), (11), (12), (15), (17) and (28).

[5] = Light Stability Test; type: physicochemical; details: ultraviolet light, wavelength=3600 A, 31°-35° C., on glass plate
Procedure: Into 2.0 ml of acetone were dissolved 80 mg of each test compound. A 5 μl portion of the solution was taken and spread on a glass plate (Micro Standard Cover Glass, 18 m/m No. 1, 200 pcs, Matsunami Glass Ind., Ltd.) and the acetone was evaporated. The specimen was exposed to ultraviolet light from a fluorescent lamp (Tokyo Shibaura Electric Co., Ltd., FL20BL, glow-type, 100 V, 24.5 W, wavelength=3600 A) which was fixed just above the specimen at a distance of 11 cm at a temperature of 31°-35° C. for a predetermined exposure time. The test liquid was washed away with 1.0 ml of methanol containing 0.04% of dioctyl phthalate as an internal reference and high-speed liquid chromatography was carried out on the washings to determine the residual amount of the test compound.

[6] = 1μg/fly, female adult, 24 hours, 25° C., [Mixture] = cis/trans 50/50, read-out: Mortality (%)
[7] = 10μg/fly, female adult, 24 hours, 25° C., [Mixture] = cis/trans 50/50, read-out: Mortality (%)

SMILES | LC50 at 48 h [1] [µg/mL] | mortality at 1 µg/fly ([2]; 24 h) [%] | mortality at 10 µg/fly ([2]; 24 h) [%] | also measured
CC1(C)C(C=C(Cl)Cl)C1C(=O)OCc1cccc(Oc2ccccc2)c1 (racemic) [Permethrin, 3-phenoxybenzyl (+)-cis,trans-2,2-dimethyl-3-(2,2-dichlorovinyl)-cyclopropanecarboxylate, reference compound] | ≤ 0.5 | – | – | –
CC1(C)[C@H](C(=O)OCc2cccc(Oc3ccccc3)c2)[C@@H]1CC(Cl)(Cl)Cl (relative stereo) [Compound (1) [Cis-isomer], 3-Phenoxybenzyl 2,2-dimethyl-3-(2,2,2-trichloroethyl)cyclopropanecarboxylate] | ≥ 10 | 96.7 | 100 | –
C#CC(OC(=O)[C@@H]1[C@@H](CC(Cl)(Cl)Cl)C1(C)C)c1cccc(Oc2ccccc2)c1 (relative stereo) [Compound (11) [Trans-isomer], 3-Phenoxy-α-ethynylbenzyl 2,2-dimethyl-3-(2,2,2-trichloroethyl)cyclopropanecarboxylate] | – | – | – | TLm (medium tolerance limit) [3]: A (A rank corresponds to TLm of not less than 10 ppm)
CC1(C)C(CC(Cl)(Cl)Cl)C1C(=O)OCc1cccc(Oc2ccccc2)c1 (centres unmarked) [(1), 3-Phenoxybenzyl 2,2-dimethyl-3-(2,2,2-trichloroethyl)cyclopropanecarboxylate] | – | – | – | Mortality (%) [4]: not less than 90%
CC(Cl)(Cl)CC1C(C(=O)OCc2cccc(Oc3ccccc3)c2)C1(C)C (centres unmarked) [(5), 3-Phenoxybenzyl 2,2-dimethyl-3-(2,2-dichloropropyl)cyclopropanecarboxylate] | – | – | – | Mortality (%) [4]: not less than 90%
C=CCC1=C(C)C(OC(=O)C2C(C=C(C)C)C2(C)C)CC1=O (centres unmarked) [Allethrin, reference compound] | ≤ 0.5 | 33.3 | 100 | Residue (%) ([5]; exposure time 3.5 hrs.): 14%; Residue (%) ([5]; exposure time 3 days): 0%
CC1(C)C(CC(Cl)(Cl)Cl)C1C(=O)OCc1cccc(Oc2ccc(Cl)cc2)c1 (centres unmarked) [Compound (2) [Mixture], 3-(4-Chlorophenoxy)benzyl 2,2-dimethyl-3-(2,2,2-trichloroethyl)cyclopropanecarboxylate] | ≥ 10 | 0 | 86.7 | –
CC(Cl)(Cl)CC1C(C(=O)OCc2cccc(Oc3ccccc3)c2)C1(C)C (centres unmarked) [Compound (5) [Mixture], 3-Phenoxybenzyl 2,2-dimethyl-3-(2,2-dichloropropyl)cyclopropanecarboxylate] | – | 100 | 100 | –
CC1(C)[C@H](CC(Cl)(Cl)Cl)[C@H]1C(=O)OC(C#N)c1cccc(Oc2ccccc2)c1 (stereo partly drawn) [Compound (7) [Trans-isomer], 3-Phenoxy-α-cyanobenzyl 2,2-dimethyl-3-(2,2,2-trichloroethyl)cyclopropanecarboxylate] | – | – | – | TLm (medium tolerance limit) [3]: B (B rank corresponds to TLm of 0.5-10 ppm)
CC(Cl)(Cl)CC1C(C(=O)OC(C#N)c2cccc(Oc3ccccc3)c2)C1(C)C (stereo not drawn) [Compound (9) [Mixture], 3-Phenoxy-α-cyanobenzyl 2,2-dimethyl-3-(2,2-dichloropropyl)cyclopropanecarboxylate] | – | 100 | 100 | –
CC(Cl)(Cl)CC1C(C(=O)OC(C#N)c2cccc(Oc3ccccc3)c2)C1(C)C (stereo not drawn) [Compound (9), 3-Phenoxy-α-cyanobenzyl 2,2-dimethyl-3-(2,2-dichloropropyl)cyclopropanecarboxylate] | – | – | – | Mortality (%) [4]: not less than 90%
C#CC(OC(=O)C1C(CC(Br)(Br)Br)C1(C)C)c1cccc(Oc2ccccc2)c1 (stereo not drawn) [Compound (12) [Mixture], 3-Phenoxy-α-ethynylbenzyl 2,2-dimethyl-3-(2,2,2-tribromoethyl)cyclopropanecarboxylate] | ≥ 10 | – | – | –
C#CC(OC(=O)[C@@H]1[C@H](CC(C)(Cl)Cl)C1(C)C)c1cccc(Oc2ccccc2)c1 (stereo partly drawn) [Compound (13) [Cis-isomer], 3-Phenoxy-α-ethynylbenzyl 2,2-dimethyl-3-(2,2-dichloropropyl)cyclopropanecarboxylate] | – | – | – | TLm (medium tolerance limit) [3]: A (A rank corresponds to TLm of not less than 10 ppm)
CC1(C)C(CC(Cl)(Cl)Cl)C1C(=O)OC(C#N)c1cccc(Oc2ccc(Cl)cc2)c1 (stereo not drawn) [Compound (15) [Mixture], 3-(4-Chlorophenoxy)-α-cyanobenzyl 2,2-dimethyl-3-(2,2,2-trichloroethyl)cyclopropanecarboxylate] | ≥ 10 | 86.7 | 100 | –
C#CC(OC(=O)C1C(CC(Cl)(Cl)Cl)C1(C)C)c1cccc(Oc2ccc(Cl)cc2)c1 (stereo not drawn) [Compound (21) [Mixture], 3-(4-Chlorophenoxy)-α-ethynylbenzyl 2,2-dimethyl-3-(2,2,2-trichloroethyl)cyclopropanecarboxylate] | ≥ 10 | 60 | 93.3 | –
CC1(C)C(CC(Cl)(Cl)Cl)C1C(=O)OCc1coc(Cc2ccccc2)c1 (centres unmarked) [Compound (28) [Mixture], 5-Benzyl-3-furylmethyl 2,2-dimethyl-3-(2,2,2-trichloroethyl)cyclopropanecarboxylate] | ≥ 10 | 86.7 | 100 | –
CC1(C)C(CC(Cl)(Cl)Cl)C1C(=O)OCc1cccc(OC=C(Cl)Cl)c1 (centres unmarked) [Compound (33) [Mixture], 3-(2,2-dichlorovinyloxy)benzyl 2,2-dimethyl-3-(2,2,2-trichloroethyl)cyclopropanecarboxylate] | ≥ 10 | – | – | mortality at 1 µg/fly [2, 6]: 6.7%; mortality at 10 µg/fly [2, 7]: 33.3%
CC1(C)C(CC(Cl)(Cl)Cl)C1C(=O)OC(C#N)c1cccc(OC=C(Cl)Cl)c1 (stereo not drawn) [Compound (34) [Mixture], 3-(2,2-dichlorovinyloxy)-α-cyanobenzyl 2,2-dimethyl-3-(2,2,2-trichloroethyl)cyclopropanecarboxylate] | ≥ 10 | – | – | mortality at 1 µg/fly [2, 6]: 56.7%; mortality at 10 µg/fly [2, 7]: 100%; Residue (%) ([5]; exposure time 3.5 hrs.): 100%; Residue (%) ([5]; exposure time 3 days): 88%; Residue (%) ([5]; exposure time 5 days): 44%
CC1(C)C(CC(Cl)(Cl)Cl)C1C(=O)OCN1C(=O)C2=C(CCCC2)C1=O (centres unmarked) [Compound (37) [Mixture], 3,4,5,6-Tetrahydrophthalimidomethyl 2,2-dimethyl-3-(2,2,2-trichloroethyl)cyclopropane carboxylate] | 0.5 to 10 | 40 | 56.7 | –
C=CCC1=C(C)C(OC(=O)C2C(CC(Cl)(Cl)Cl)C2(C)C)CC1=O (centres unmarked) [Compound (38) [Mixture], Allethronyl 2,2-dimethyl-3-(2,2,2-trichloroethyl)cyclopropanecarboxylate] | 0.5 to 10 | 6.7 | 100 | –
CC1(C)C(C=C(Cl)Cl)C1C(=O)OC(C#N)c1cccc(Oc2ccccc2)c1 (stereo not drawn) [Cypermethrin, 3-phenoxy-α-cyanobenzyl 2,2-dimethyl-3-(2,2-dichlorovinyl)cyclopropanecarboxylate, reference compound] | ≤ 0.5 | – | – | –
CC(C)C(C(=O)OC(C#N)c1cccc(Oc2ccccc2)c1)c1ccc(Cl)cc1 (stereo not drawn) [Fenvalerate, 3-phenoxy-α-cyanobenzyl α-(4-chlorophenyl)isovalerate, reference compound] | ≤ 0.5 | – | – | –
CC(C)=CC1C(C(=O)OCc2coc(Cc3ccccc3)c2)C1(C)C (centres unmarked) [Resmethrin, 5-benzyl-3-furylmethyl chrysanthemate, reference compound] | ≤ 0.5 | – | – | –
